The subject of experiment [1] is α-COP R13A K15S R57S mutant (α1-327). Nature of the experiment: ITC with α1-327 R13A K15S R57S mutant. It counts as binding, yeast. As to conditions: 10°C, 300 mM NaCl. As to the method:
(§1) ITC experiments were conducted on a Microcal VP-ITC machine (GE Healthcare) at 10°C. Molar peptide concentration in the syringe was ten times that of protein in the cell. β'-COP constructs were gel filtered into 50 mM HEPES (pH 7.4) and 100 mM NaCl, and α-COP constructs were gel filtered into 50 mM HEPES (pH 7.4) and 300 mM NaCl prior to runs. Titration data were analyzed in ORIGIN to obtain values for stoichiometry (N), equilibrium association constant (Ka), and enthalpy of binding. All experiments were carried out at least three times with appropriate standard deviations reported.
(§2) Figure S3, related to Figure 2. Model and in vitro data of α-COP 1-327 binding to a KKxx
(§3) motif. A homology model of residues 1-327 of yeast α-COP binding to the KKTN motif from
(§4) (1 picture or pasted object on this page, not shown here)
(§5) Homology model of the α-COP N-terminal propeller
(§6) Isothermal titration calorimetry

The subject of experiment [2] is α-COP D229A E273A mutant (α1-327). Nature of the experiment: ITC with α1-327 D229A E273A mutant. It counts as binding, yeast. As to conditions: 10°C, 300 mM NaCl. As for the experimental part: as §1, §2, §3, §4, §5, §6
Experiment [3] concerns α-COP D96A D115A mutant (α1-327). In words: ITC with α1-327 D96A D115A mutant. The conditions noted are these: 10°C, 300 mM NaCl. It counts as binding, yeast. As to the method: as §1, §2, §3, §4, §5, §6
In experiment [4] the target is T1, yeast β'-COP 1-304 (N-terminal WD-repeat domain), wild-type (Saccharomyces cerevisiae, UniProt P41811).
T1 construct: GST (thrombin-cleavable) (C, cleaved yes); made in house; host or cells: E. coli BL21(DE3)pLysS
T1 sequence (P41811 1-304): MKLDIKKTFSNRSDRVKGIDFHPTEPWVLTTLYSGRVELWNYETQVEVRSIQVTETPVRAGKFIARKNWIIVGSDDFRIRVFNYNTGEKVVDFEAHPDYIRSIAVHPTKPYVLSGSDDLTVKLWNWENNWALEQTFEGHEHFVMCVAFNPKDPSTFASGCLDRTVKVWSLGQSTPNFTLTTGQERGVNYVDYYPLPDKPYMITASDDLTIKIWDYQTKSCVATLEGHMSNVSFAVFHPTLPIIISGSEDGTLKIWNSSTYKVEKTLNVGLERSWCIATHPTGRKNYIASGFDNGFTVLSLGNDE
In words: ITC of dilysine motif peptides with wild-type β'1-304. The conditions noted are these: for binding by ITC (in words): 10°C, 50 mM HEPES pH 7.4, 100 mM NaCl, at least three runs. It counts as binding. As for the experimental part:
as §6
equilibrium association constant (Ka), and enthalpy of binding. All experiments were carried out
100 mM NaCl to mimic physiological salt conditions. Wild type yeast α-COP (α1-327) was gel
Immediately prior to a run, the protein was
mM NaCl than at 100 mM NaCl.
and ultraviolet absorbance (Agilent 1200 UV, Agilent Technologies). Samples of β’1-304 or 1-
the construct lacks the α-solenoid domain. […]
For orientation: In ITC the heat of successive injections is recorded.

Experiment [5] concerns the target β'-COP R15A K17A R59A mutant (β'1-304) (Saccharomyces cerevisiae, UniProt P41811, K17A/R15A/R59A). Nature of the experiment: biochemical. As for the experimental part:
(§7) The β'-COP R15A K17A R59A mutant was designed to disrupt binding to the carboxy terminus of the motif, and the D206A E248A mutant was intended to disrupt binding to the -3 lysine.
as §1, §5, §6

Experiment [6] addresses β'-COP D98A D117A mutant (β'1-304) (Saccharomyces cerevisiae, UniProt P41811, D117A/D98A). In words: biochemical. As for the experimental part:
as §7, §1, §5, §6

In experiment [7] the target is β'-COP D206A E248A mutant (β'1-304) (Saccharomyces cerevisiae, UniProt P41811, D206A/E248A). Nature of the experiment: biochemical. As to the method: as §7, §1, §5, §6

“Also recorded” adds a separate entry of the source. No end group written: not given here.

These results are taken from paper PMC3521961, “Molecular Basis for Recognition of Dilysine Trafficking Motifs by COPI” (Developmental Cell, 2012).

In general, Kd refers to the free concentration of one partner at which half of the binding sites on the other are occupied at equilibrium, for simple one-to-one binding. A high value points to a looser complex.

Chain of β'-COP D206A E248A mutant (β'1-304) (P41811 1-304 D206A/E248A): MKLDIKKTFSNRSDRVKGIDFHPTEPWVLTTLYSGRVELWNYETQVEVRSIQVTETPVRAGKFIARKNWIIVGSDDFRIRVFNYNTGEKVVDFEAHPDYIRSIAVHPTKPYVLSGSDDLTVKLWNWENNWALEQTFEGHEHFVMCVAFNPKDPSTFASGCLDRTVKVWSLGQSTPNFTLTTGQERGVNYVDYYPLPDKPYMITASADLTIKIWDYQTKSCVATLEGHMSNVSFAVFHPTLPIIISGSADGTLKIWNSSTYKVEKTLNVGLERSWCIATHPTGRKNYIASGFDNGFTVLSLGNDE
Chain of β'-COP R15A K17A R59A mutant (β'1-304) (P41811 1-304 R15A/K17A/R59A): as the sequence (P41811 1-304 D206A/E248A) above, with R15A, K17A, R59A, A206D, A248E counted along it
Chain of β'-COP D98A D117A mutant (β'1-304) (P41811 1-304 D98A/D117A): as the sequence (P41811 1-304 D206A/E248A) above, with D98A, D117A, A206D, A248E counted along it

Regarding CTFKKTN-OH [KKTN], the “binding by ITC (in words)” value in experiment [1], in experiment [2] and in experiment [3] was “no measurable binding” each time.

For KKLIE [KKLIE peptide from p23], the “binding by ITC (in words)” value in experiment [4] is given as “no measurable binding; also recorded: does not bind”.

On to KTKLL-CONH2 [amidated KTKLL peptide], for which the “binding by ITC (in words)” value in experiment [4] is “no measurable binding”.

In the case of “KTSLL [KTKLL motif variant lacking the -3 lysine]”, in experiment [4], the “binding by ITC (in words)” value is given as “no measurable binding”.

Consider RQEIIKTKLL [KTKLL], for which the “measured KD at 300 mM NaCl relative to 100 mM NaCl” value in experiment [4] (ITC control runs in 300 mM NaCl compared to 100 mM NaCl) is on record as “four- to five-fold weaker”. Moreover, the Kd in experiment [5], in experiment [6] and in experiment [7] was below 300 µM each time.

As to RRVV [RRVV peptide from p24], in experiment [4], the “binding by ITC (in words)” value is “no measurable binding”.
